Assays:
human PPARγ = target: T1, human PPARγ (Homo sapiens, UniProt P37231); assay: PPARγ/Gal4 transactivation system; assay type: cell-based
T1 construct: expressed in transfected cells; host or cells: RK13 or COS-7
T1 sequence (P37231 238-503 limits assumed): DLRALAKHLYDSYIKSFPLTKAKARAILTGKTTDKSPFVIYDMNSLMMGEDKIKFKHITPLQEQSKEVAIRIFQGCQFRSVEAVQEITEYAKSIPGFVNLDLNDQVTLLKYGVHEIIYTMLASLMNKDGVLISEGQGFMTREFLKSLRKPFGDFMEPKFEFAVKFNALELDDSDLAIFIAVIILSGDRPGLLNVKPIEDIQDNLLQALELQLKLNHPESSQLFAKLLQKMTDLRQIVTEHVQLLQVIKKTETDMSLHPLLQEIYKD
Method: (§1) PPAR activation was tested in vitro in RK13 or COS-7 fibroblast cell lines by measuring the transcriptional activity of chimeras composed of the DNA binding domain of the yeast Gal4 transcription factor and the ligand binding domain of the different PPARs. These latter results were then confirmed in cell lines according to the following protocols.
(§2) Culture protocols: RK13 were from ECACC (Porton Down, UK) and were grown in DMEM medium supplemented with 10% (V/V) fetal calf serum, 100 U/ml penicillin (Gibco, Paisley, UK) and 2 mM L-glutamine (Gibco, Paisley, UK). COS-7 cells were from ATCC and were grown in DMEM medium supplemented with 10% (V/V) fetal calf serum, 1% penicillin/streptomycine (Biochrom, AG), 1% of amino acids (Gibco) and 1% sodium pyruvate (Gibco).
(§3) The culture medium was changed every two days. Cells were kept at 37° C. in a humidified 95% air/5% CO2 atmosphere.
(§4) Description of plasmids used for transfection: The plasmids Gal4(RE)_TkpGL3, pGal4-hPPARα, pGal4-hPPARγ, pGal4-hPPARδ and pGal4-φ have been described in the literature (Raspe E et al., 1999). The pGal4-hPPARα, pGal4-hPPARγ and pGal4-hPPARδ constructs were obtained by cloning into the pGal4-φ vector PCR-amplified DNA fragments corresponding to the DEF domains of the human PPARs nuclear receptors.
(§5) Transfection of RK13: RK13 cells were seeded in 24-well culture dishes at 5×10^4 cells/well and transfected for 2 hours with the reporter plasmid Gal4(RE)_TkpGL3 (50 ng/well), the expression vectors pGal4-φ, pGal4-hPPARα, pGal4-hPPARγ and pGal-hPPARδ (100 ng/well) and the transfection efficiency control vector pRL-CMV (1 ng/well) according to the previously described protocol (Raspe E, Madsen L, Lefebvre A M, Leitersdorf I, Gelman L, Peinado-Onsurbe J, Dallongeville J, Fruchart J C, Berge R and Staels B, 1999), then incubated for 36 hours with the test compounds. RK13 cells were incubated with the different compounds at concentrations of 10, 30 and 100 μM or 1, 10 and 100 μM for 24 hours. At the end of the experiment, the cells were lysed (Gibco, Paisley, UK) and luciferase activity was determined with a Dual-Luciferase™ Reporter Assay System kit (Promega, Madison, Wis., USA) according to the supplier's instructions. The protein content of the cell extracts was then measured with the Bio-Rad Protein Assay (Bio-Rad, Munich, Germany) as directed by the supplier.
(§6) Transfection of COS7: Cells in suspension are transfected, in the presence of 10% (V/V) fetal calf serum, with 150 ng of DNA per well with a pGal4-PPAR/Gal4(RE)_TkpGL3 ratio of 1/10. Cells are then seeded in 96 well plates (4×10^4 cells/well) and incubated for 24 hours at 37° C. Activation with compounds is performed on 24 hours at 37° C. in culture medium without serum. At the end of the activation period, cells are lysed and luciferase activity is determined, using the Steady Glow Luciferase Kit (Promega), according to the supplier's instructions.

[1] = tested on: hApoE2 Knock-in transgenic mice; assay: Effects on triglycerides and cholesterol metabolism in vivo; design: species or system mouse
Method: Treatment of animals: hApoE2 knock-in transgenic mice were kept on a 12-hour light/dark cycle at a constant temperature of 20±3° C. After a 1 week acclimation, mice were separated in groups of 6 animals selected such that the distribution of their body weight and plasmatic lipid levels determined before the experiment were uniform. The test compounds were suspended in carboxymethylcellulose and administered by intragastric gavage at the indicated doses, once a day for 7 or 8 days. Animals had access to food and water ad libitum. At the end of the experiment the animals were weighed and sacrificed under anesthesia. Blood was collected on EDTA. Plasma was prepared by centrifugation at 3000 rpm for 20 minutes. Organs were harvested, frozen in liquid nitrogen and stored at −80° C. for subsequent analysis.
Measurement of serum lipids: Serum lipid concentrations (total cholesterol and triglycerides) were determined by a colorimetric assay (Boehringer, Mannheim, Germany) according to the supplier's instructions.

human PPARα = target: T2, human PPARα (Homo sapiens, UniProt Q07869); assay: PPARα/Gal4 transactivation system; assay type: cell-based; settings: for concentration at which maximal activity is observed: PPAR/Gal4 transactivation system
T2 construct: expressed in transfected cells; host or cells: RK13 or COS-7
T2 sequence (Q07869 239-466 limits assumed): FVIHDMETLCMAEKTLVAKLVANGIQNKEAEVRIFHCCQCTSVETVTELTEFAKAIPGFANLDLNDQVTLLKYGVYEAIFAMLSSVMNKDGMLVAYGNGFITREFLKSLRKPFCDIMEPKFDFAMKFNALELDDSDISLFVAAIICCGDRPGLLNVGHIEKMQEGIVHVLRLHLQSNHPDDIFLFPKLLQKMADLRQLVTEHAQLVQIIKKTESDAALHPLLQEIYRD
Method: as §1, §2, §3, §4, §5, §6

HaCat cells = assay: Antioxidant properties on cell cultures (carboxy-H2DCFDA fluorescence, AAPH stress), keratinocytes; assay type: cell-based, human; settings: AAPH 750 μM; for antioxidant properties on cell cultures (in words): 25 μM for 24 h
Method: (§7) The reduction in the intensity of the emitted fluorescence signal was determined in cells treated with the compounds in the following manner.
(§8) Prior to stress the cells with an oxidative agent such as AAPH (CAS number 2997-92-4), cells are incubated with compounds of interest at 25 μM for 24 h. Then the culture medium is discarded and cells are rinsed two times with PBS. Cells are then incubated 30 min at 37° C. with a cell-permeant indicator for reactive oxygen species that is nonfluorescent until the acetate groups are removed by intracellular esterases and oxidation occurs within the cell 5-(and-6)-carboxy-2′,7′-dichlorodihydrofluorescein diacetate (carboxy-H2DCFDA). The probes are prepared in PBS and incubated at the final concentration of 25 μM. After the incubation with the probe, cells are rinsed and incubated another 30 min with the oxidative solution containing AAPH at 750 μM in culture medium without phenol red and serum.
(§9) The fluorescence is then measured with a fluorimeter with the following wavelength, […].
(§10) Two different cell types have been tested with the inventive compounds. Human normal primary fibroblasts and HaCat cells which are a human keratinocyte cell line.

[2] = tested on: Human normal primary fibroblasts; assay: Antioxidant properties on cell cultures (carboxy-H2DCFDA fluorescence, AAPH stress), fibroblasts; assay type: cell-based; settings: AAPH 750 μM; for antioxidant properties on cell cultures (in words): 25 μM for 24 h
Method: as §7, §8, §9, §10

human PPARδ = target: T3, human PPARδ (Homo sapiens, UniProt Q03181); assay: PPARδ/Gal4 transactivation system; assay type: cell-based
T3 construct: expressed in transfected cells; host or cells: RK13 or COS-7
T3 sequence (Q03181 211-439 limits assumed): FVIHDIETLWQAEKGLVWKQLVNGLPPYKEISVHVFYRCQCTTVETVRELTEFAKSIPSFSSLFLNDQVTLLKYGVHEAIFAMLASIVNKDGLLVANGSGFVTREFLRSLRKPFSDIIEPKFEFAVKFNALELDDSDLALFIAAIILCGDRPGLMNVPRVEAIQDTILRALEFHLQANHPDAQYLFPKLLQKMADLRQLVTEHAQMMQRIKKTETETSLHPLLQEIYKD
Method: as §1, §2, §3, §4, §5
Transfection of COS7: Cells in suspension are transfected, in the presence of 10% (V/V) fetal calf serum, with 150 ng of DNA per well with a pGal4-PPAR/Gal4(RE)_TkpGL3 ratio of 1/10. […] At the end of the activation period, cells are lysed and luciferase activity is determined, using the Steady Glow Luciferase Kit (Promega), according to the supplier's instructions.

LDL = assay: Protection against LDL oxidation by copper (conjugated diene formation); assay type: biochemical; settings: for lag phase of conjugated diene formation / rate of conjugated diene formation: 10^−4M
Method: LDL oxidation is an important alteration and plays a predominant role in the establishment and development of atherosclerosis (Jurgens G et al., 1987). […] Unless otherwise indicated, the reagents were from Sigma (St Quentin, France). LDL were prepared according to the method described by (Havel R J et al., 1955). The solutions of test compounds were prepared at 10^−2 M concentration in bicarbonate buffer (pH 9) and diluted in PBS to obtain final concentrations ranging from 0.1 to 100 μM for a total ethanol concentration of […]. Prior to oxidation, EDTA was removed from the LDL preparation by dialysis. Oxidation then took place at 30° C. by addition of 100 μl of 16.6 μM CuSO4 solution to 160 μL of LDL (125 μg protein/ml) and 20 μl of a test compound solution. The formation of dienes, the species under observation, was followed by measuring optical density at 234 nm in the samples treated with the compounds but in the presence or absence of copper. Optical density at 234 nm was measured every 10 minutes for 8 hours in a thermostated spectrophotometer (Tecan Ultra 380). The compounds were considered to have antioxidant activity when they induced a longer lag phase and reduced the rate of oxidation and the amount of dienes formed in comparison with the control sample.

[3] = PPAR/Gal4 transactivation system
[4] = 50 mg/kg/day for 7 or 8 days, FIGS. 4-13, 4-15, 4-17, 4-19
[5] = 50 mg/kg/day for 7 or 8 days, FIGS. 4-14, 4-16, 4-18, 4-20

Compound	activation of PPAR γ (in words) (human PPARγ; [3])	plasma cholesterol [1, 4]	plasma triglycerides [1, 5]	concentration at which maximal activity is observed (human PPARα) [µM]	antioxidant properties on cell cultures (in words) (HaCat cells)	antioxidant properties on cell cultures (in words) [2]	activation of PPAR δ (in words) (human PPARδ)	induction factor (luminescent signal relative to untreated cells) (human PPARα; 10 μM)	induction factor (luminescent signal relative to untreated cells) (human PPARα; 100 μM)	further results
Cc1cc(/C=C/C(=O)c2ccc(SC(F)(F)F)cc2)cc(C)c1OC(C)(C)C(=O)O [Compound 54, 1-[4-trifluoromethylthiophenyl]-3-[3,5-dimethyl-4-carboxydimethylmethyloxyphenyl]prop-2-en-1-one]	can activate	decrease	decrease	0.03	antioxidant properties	antioxidant properties	can activate			
CCCCCCOc1ccc(C(=O)/C=C/c2cc(C)c(OC(C)(C)C(=O)O)c(C)c2)cc1 [Compound 33, 1-[4-hexyloxyphenyl]-3-[3,5-dimethyl-4-carboxydimethylmethyloxyphenyl]prop-2-en-1-one]					antioxidant properties	antioxidant properties		44	77	maximum induction factor (human PPARγ; 100 μM): 45.6; cholesterol in lipoparticle subfraction (exclusion chromatography) ([1]; 50 mg/kg/day for 8 days): decrease; plasma cholesterol ([1]; 50 mg/kg/day for 8 days): decrease; plasma triglycerides ([1]; 50 mg/kg/day for 8 days): decrease; triglycerides in lipoparticle subfraction (exclusion chromatography) ([1]; 50 mg/kg/day for 8 days): decrease; induction factor (luminescent signal relative to untreated cells) (human PPARα; 1 μM): 22; lag phase of conjugated diene formation (LDL; FIG. 1-9, copper alone 80 minutes): 247 min; rate of conjugated diene formation (LDL; FIG. 1-10, copper alone 1.9): 0.8 nmol/min/mg of LDL; maximum amount of conjugated dienes formed (LDL; FIG. 1-11, copper alone 298): 257 nmol per mg of LDL
CCCOc1ccc(C(=O)/C=C/c2cc(C)c(OC(C)(C)C(=O)O)c(C)c2)cc1 [Compound 70, 1-[4-propyloxyphenyl]-3-[3,5-dimethyl-4-carboxydimethylmethyloxyphenyl]prop-2-en-1-one]	can also activate	decrease	decrease	0.03			can also activate			% of oxidative reduction versus control cells (HaCat cells; compounds at 25 μM for 24 h): 47%; % of oxidative reduction versus control cells ([2]; compounds at 25 μM for 24 h): 53%
Cc1cc(/C=C/C(=O)c2ccc(Cl)cc2)cc(C)c1OC(C)(C)C(=O)O [Compound 17, 1-[4-chlorophenyl]-3-[3,5-dimethyl-4-carboxydimethylmethyloxyphenyl]prop-2-en-1-one]								85	13.8	maximum induction factor (human PPARγ; 10 μM): 25; cholesterol in lipoparticle subfraction (exclusion chromatography) ([1]; gavage 200 mg/kg for 7 days): decreased; plasma concentration of cholesterol ([1]; gavage 200 mg/kg for 7 days): decrease; plasma concentration of triglycerides ([1]; gavage 200 mg/kg for 7 days): decrease; triglycerides in lipoparticle subfraction (exclusion chromatography) ([1]; gavage 200 mg/kg for 7 days): decreased; lag phase of conjugated diene formation (LDL; FIG. 1-1, copper alone 111 minutes): 203 min; rate of conjugated diene formation (LDL; FIG. 1-2, copper alone 2): 1.7 nmol/min/mg of LDL
Cc1cc(/C=C/C(=O)c2ccc(C(F)(F)F)cc2)cc(C)c1OC(C)(C)C(=O)O [Compound 58, 1-[4-trifluoromethylphenyl]-3-[3,5-dimethyl-4-carboxydimethylmethyloxyphenyl]prop-2-en-1-one]		decrease	decrease	0.3	antioxidant properties	antioxidant properties	can activate			concentration at which maximal activity is observed (human PPARγ; [3]): 1 µM
